{
  "source": "patent US20050163711A1",
  "about": "“Intra-dermal delivery of biologically active agents” (Becton, Dickinson and Company, Inc., priority 2003, published 2005)",
  "key": {"[1]": {"test": "Dye staining and tracing in vivo: comparison of SC and ID delivery", "set-up": "species or system Yorkshire swine", "conditions": "swine; for location of dye on dissection: 10 minutes post injection", "method": "MATERIALS AND METHODS. In vivo cell staining and all the following experiments were conducted under an approved IACUC protocol. […] Visual observation made during ID injection noted immediate transport of the dye from the site of injection moving toward the regional draining lymph node, the inguinal node. This transport was visible through the skin and was extremely rapid, traversing tissues at velocities of up to 10 cm per second. […] The swine was euthanized and dissected 10 minutes post injection and the location of the dye observed."}, "[2]": {"test": "ID administration of 200 uL dye with 34G, 1 mm needle/catheter, transport to inguinal lymph node", "format": "in vivo, Yorkshire swine", "conditions": "swine, manual ID above the right hoof, 200 uls", "method": "MATERIALS AND METHODS. The following experiments were conducted under an approved IACUC protocol. Yorkshire Swine (Charles River Laboratories, Raleigh, N.C.), approximately 20-25 kg, were anesthetized (Rompun 4 mg/kg, Xylazine 2 mg/kg, and Ketamine 2 mg/kg and maintained on 2% isoflurane) and injected intradermally with 1% Evans Blue (EB) dye solution at various volumes and needle penetration depths using a standard syringe and a 34 gauge needle. Injection volume and rate was controlled manually or with a Harvard Apparatus PhD 2000 programmable pump.\nThe skin at the injection site, including the injected material and surrounding tissue, was immediately excised after the injection. The tissue was flash frozen on dry ice/2-methylbutane and then stored at −80° C. until sectioning. The frozen tissue was cut longitudinally through the needle insertion point and immediately examined microscopically and photographed. Microscopic examinations were conducted using a Nikon SMZ-U dissecting scope with a Nikon FX-35PX 35 mm camera mount. Alternatively, after injection, the swine was euthanized and the tissue resected and photographed.\nOne anesthetized Yorkshire swine was manually injected intradermally above the right hoof with 200 uls of EB through a 34G, 1 mm needle/catheter."}, "[3]": {"test": "Dye staining and tracing in vivo after intradermal injection", "set-up": "species or system Balb/c mice", "conditions": "mouse, ID, 34 gauge needle, 1% solution, one hour post injection", "method": "MATERIALS AND METHODS. In Vivo cell staining and all the following experiments were conducted under an approved IACUC protocol. Balb/c mice (Charles River Laboratories, Raleigh, N.C.), 6-8 weeks old, were anesthetized (IsoFlurane, Abbott Laboratories, Chicago, Ill.) and injected intradermally with 1% Evans Blue dye solution using a standard syringe with 34 gauge needle. The mice were dissected one hour post injection and the location of the dye observed. The mouse, as the human, has several main groups of easily identified draining lymph nodes."}, "[4]": {"conditions": "Yorkshire, swine, in vivo", "quoted_text": "Yorkshire swine (Charles River Laboratories, Raleigh, N.C.), 20-25 kg, were anesthetized (telazol/xylazine/ketamine mix (35, 17.5, 17.5 mg/kg respectively, followed by continued isoflurane inhalation) and injected intradermally (90° angle) using a 34G, 1 mm needle/catheter and a standard syringe. IV injections were performed using a 27G, half-inch needle and delivered through a venous catheter. All recovered swine were intubated and hydrated throughout the procedure.\nDye Injections: Yorkshire swine were injected ID as described above, with 200 uls of 250 ug/ml indocyanine green (ICG) in sterile water (Fluka Chemical Corp., Milwaukee, Wis.). Injections sites included the right hind leg, and at the first and second teat of the left mammary chain. Additional injections of 200 μls and 75 μls were performed at 80 ug/ml indocyanine green in order to determine lymphatic flow rates. […]\nImage Acquisition: Near infrared images were obtained using a tungsten lamp (Dolan-Jenner, Lawrence, Mass.) fitted with a 750 nm excitation filter (Omega Optical, Brattleboro, Vt.), a CCD camera (Kowa Co., Supercircuits CCTV camera model b/w Hi-Res ExVision) fitted with a 790 nm long pass emission filter (Omega Optical) and a Canon ZR-20 mini-DV camcorder. […] Speed of infusion through the lymphatic vessels determined from film footage."}},
  "data": [
    {"compound": "Cc1cc(-c2ccc(/N=N/c3ccc4c(S(=O)(=O)O)cc(S(=O)(=O)O)c(N)c4c3O)c(C)c2)ccc1/N=N/c1ccc2c(S(=O)(=O)O)cc(S(=O)(=O)O)c(N)c2c1O", "note": "[Evans Blue]", "values": [
      {"measurement": "location of dye on dissection", "setting": "[1]; ID injected", "value": "moved rapidly through the lymphatic vasculature to the inguinal node"},
      {"measurement": "velocity of dye transport from injection site toward inguinal node", "setting": "[1]; ID, 34-gauge needle 1 mm, 1% solution, visual observation through skin", "value": "up to 10 cm per second"},
      {"measurement": "location of dye on dissection", "setting": "[1]; subcutaneous injected", "value": "remained at the site of injection and was not transported to the inguinal node"},
      {"measurement": "transport of dye, visual observation", "setting": "[1]; subcutaneous, 25 gauge needle, approximate depth 7 mm", "value": "no apparent transport of the dye"},
      {"measurement": "time for dye to travel from site of injection to draining inguinal lymph node", "setting": "[2]", "value": "Within seconds"},
      {"measurement": "rate of travel of dye to draining inguinal lymph node", "setting": "[2]; 34G 1 mm needle/catheter", "value": "~20", "unit": "cm/s"},
      {"measurement": "staining of superficial inguinal lymph nodes with the dye", "setting": "[3]", "value": "highly stained"}
    ]},
    {"compound": "CC1(C)C(/C=C/C=C/C=C/C=C2\\N(CCCCS(=O)(=O)O)c3ccc4ccccc4c3C2(C)C)=[N+](CCCCS(=O)(=O)[O-])c2ccc3ccccc3c21", "note": "[ICG, indocyanine green]", "values": [
      {"measurement": "dye travel speed calculated for one injection", "setting": "[4]", "value": 7, "unit": "cm/s"}
    ]}
  ]
}
